pIC50: −log10 of the molar value. Where “and” joins values, the source holds several entries; their conditions need not be identical. Identical values can stand only once.
What was measured:
[1] = test system: WI‐26 VA4 cells stably expressing EV (empty vector); assay: Collagen ELISA in cells stably expressing EV; conditions: for Collagen level, average: average of 4 experiments; for Collagen level, single replicates: replicates of Experiments #1-#4
[2] = Two‐week repeated‐dose toxicity study, HF versus DWN12088; type: in vivo, mice; conditions: male, ICR (CrljOri: CD1), mouse, in vivo; oral once daily for 2 weeks, ICR mice
Method: (§1) To compare the in vivo toxicity of HF and DWN12088, all experiments were conducted following the international guidelines on the ethical use of experimental animals and approved by the Institutional Animal Care and Use Committee of KNOTUS (KNOTUS IACUC 21‐KE‐250 and KNOTUS IACUC 21‐KE‐359). ICR (CrljOri: CD1) mice (7‐week‐old, male, obtained from Koatech) were randomized (n = 6 for each group) and then orally administered with the indicated amounts of HF or DWN12088 once daily for 2 weeks. In the high‐dose group, the dose of DWN12088 was reduced from 120 mg/kg to 90 mg/kg from day 6. […] Body weight was measured at day 1, 2, 3, 4, 5, 8, 14, and 15.
(§2) After administering the drugs for 2 weeks, mice were fasted overnight and anesthetized with isoflurane. Blood samples were collected in EDTA‐coated tubes, and the following parameters were determined using a hematology analyzer (ADVIA 2120, SIEMENS, USA); red blood cell, platelet count, hematocrit, white blood cell, red cell distribution width, hemoglobin concentration distribution width, hemoglobin concentration, neutrophil, mean corpuscular volume, lymphocyte, mean cell hemoglobin, monocyte, mean cell hemoglobin concentration, eosinophil, mean platelet volume, basophil, reticulocytes, and large unstained cells.
(§3) For clinical chemistry, the remaining blood samples were incubated in a vacutainer tube with clot activator and then centrifuged to prepare serum. The following parameters were measured in the serum using a chemistry analyzer (7180, Hitachi, Japan) and electrolyte analyzer (AVL 9180, Roche, Switzerland); aspartate aminotransferase, albumin, alanine aminotransferase, albumin/globulin ratio, alkaline phosphatase, blood urea nitrogen, creatine phosphokinase, creatinine, total bilirubin, inorganic phosphorus, glucose, calcium, total cholesterol, sodium, triglyceride, potassium, total protein, and chloride.
(§4) After blood collection, blood was drained by incising the abdominal aorta and posterior vena cava, and all organs of the skin, brain, thoracic cavity, and abdominal cavity were observed. The relative weights of the lung, spleen, liver, heart, kidney, thymus, and testes were calculated by dividing the weight of each organ by the body weight. The experiments were conducted as non‐blind test.

[3] = test system: ICR (CrljOri: CD1) mice; assay: as above; type: in vivo
Method: as §1, §2, §3, §4

[4] = test system: WI‐26 VA4 cells; assay: Immunoblot of cellular protein levels with different proline content; type: cell-based, human; conditions: Fig 2A
Method: (§5) The levels of proteins were determined by immunoblot assay. […] The lowest concentration at which protein levels started to decrease was normalized by IC50 values for collagen level and used as the y‐axis value. […] The slope and R^2 value were calculated using GraphPad Prism 7.0. […] The activation of the TGF‐β pathway was determined by monitoring the phosphorylation of SMAD2. Immunoblot images are representative of three biologically independent experiments. • The band intensities of the immunoblot images in (C) were quantified using ImageJ (n = 3; One‐way ANOVA; *P < 0.05, **P < 0.01, ***P < 0.001; mean ± SEM). Source data are available online for this figure.

[5] = test system: phosphorylation of SMAD2; assay: Phosphorylation of SMAD2 (TGF‐β pathway), immunoblot; type: cell-based, human; conditions: TGF‐β 2 ng/ml, 15 h
Method: as §5

[6] = test system: C57BL/6 mice; assay: Bleomycin‐induced lung fibrosis, therapeutic model 2 (compounds from 2 weeks after bleomycin); type: in vivo; conditions: model 2, drug administration from day 14
Method: To examine therapeutic efficacy of DWN12088, all experiments were conducted following the international guidelines on the ethical use of experimental animals and approved by the Institutional Animal Care and Use Committee of Daewoong Pharmaceutical (IACUC‐21‐014). C57BL/6 mice (7–8‐week‐old, male, obtained from Orient Bio) were anesthetized with Zoletil and injected intratracheally with 100 μl bleomycin (2 units/kg) (Merck, B8416) to induce lung fibrosis. A group of disease‐free mice (“untreated”) were injected with PBS instead of bleomycin. After a week, mice treated with bleomycin were randomized to (i) vehicle (saline), (ii) HF 0.05 mg/kg, (iii) HF 0.1 mg/kg, and (iv) DWN12088 10 mg/kg groups (n = 5 for each group) according to their body weight. The drugs were orally administered once daily for 2 weeks, and then the outcome was analyzed. For the experiments testing the effect of the compounds 2 weeks after bleomycin challenge, the experiment was approved by IACUC of Daewoong Pharmaceutical (IACUC‐22‐009). […]
The collagen contents of lung tissues were measured using Sircol™ soluble collagen assay (Biocolor Ltd., S1000) following the manufacturer's instructions. […] Tissue extracts were incubated with Sirius red dye, and the absorbance was determined at 540 nm using a spectrophotometer. […]

O=C(CC1NCCCC1O)Cn1cnc2cc(Br)c(Cl)cc2c1=O (centres unmarked) [HF, Halofuginone, reference compound]
pIC50 ([1]; Homo sapiens, WI26VA4, read-out: IC50, collagen level): 7.82
Collagen level, average ([1]; WI-26 VA4 EV, 0.3 nM): 105.43 % of control
Collagen level, single replicates ([1]; WI-26 VA4 EV, 0.3 nM): 107.71 % of control and 102.31 % of control and 99.56 % of control and 107.96 % of control and 119.37 % of control and 97.79 % of control and 105.72 % of control and 112.41 % of control and 97.00 % of control and 105.68 % of control and 103.25 % of control
Collagen level, average ([1]; WI-26 VA4 EV, 1 nM): 98.88 % of control
Collagen level, single replicates ([1]; WI-26 VA4 EV, 1 nM): 99.81 % of control and 96.49 % of control and 94.72 % of control and 113.88 % of control and 89.98 % of control and 98.97 % of control and 99.45 % of control and 90.47 % of control and 100.22 % of control and 101.63 % of control and 90.65 % of control and 110.29 % of control
Collagen level, average ([1]; WI-26 VA4 EV, 3 nM): 98.91 % of control
Collagen level, single replicates ([1]; WI-26 VA4 EV, 3 nM): 95.48 % of control and 110.90 % of control and 101.31 % of control and 98.76 % of control and 84.68 % of control and 101.40 % of control and 94.43 % of control and 83.51 % of control and 102.77 % of control and 119.57 % of control and 100.02 % of control and 94.04 % of control
Collagen level, average ([1]; WI-26 VA4 EV, 10 nM): 67.80 % of control
Collagen level, single replicates ([1]; WI-26 VA4 EV, 10 nM): 70.56 % of control and 73.60 % of control and 52.16 % of control and 80.52 % of control and 55.32 % of control and 68.13 % of control and 71.03 % of control and 51.88 % of control and 67.22 % of control and 78.89 % of control and 53.10 % of control and 91.18 % of control
Collagen level, average ([1]; WI-26 VA4 EV, 30 nM): 31.49 % of control
Collagen level, single replicates ([1]; WI-26 VA4 EV, 30 nM): 29.59 % of control and 29.66 % of control and 28.02 % of control and 34.01 % of control and 34.11 % of control and 31.81 % of control and 31.01 % of control and 33.29 % of control and 33.04 % of control and 33.86 % of control and 29.96 % of control and 29.53 % of control
Collagen level, average ([1]; WI-26 VA4 EV, 100 nM): 6.34 % of control
Collagen level, single replicates ([1]; WI-26 VA4 EV, 100 nM): 7.42 % of control and 5.23 % of control and 5.03 % of control and 5.46 % of control and 5.70 % of control and 6.01 % of control and 7.87 % of control and 7.08 % of control and 6.26 % of control and 7.39 % of control and 6.77 % of control and 5.82 % of control
Collagen level, average ([1]; WI-26 VA4 EV, 300 nM): 4.49 % of control
Collagen level, single replicates ([1]; WI-26 VA4 EV, 300 nM): 4.87 % of control and 3.68 % of control and 2.38 % of control and 3.50 % of control and 4.00 % of control and 5.84 % of control and 5.04 % of control and 4.31 % of control and 5.22 % of control and 6.88 % of control and 2.82 % of control and 5.35 % of control
Collagen level, average ([1]; WI-26 VA4 EV, 1000 nM): 5.68 % of control
Collagen level, single replicates ([1]; WI-26 VA4 EV, 1000 nM): 6.31 % of control and 4.51 % of control and 4.24 % of control and 5.46 % of control and 6.24 % of control and 6.40 % of control and 5.99 % of control and 5.56 % of control and 5.73 % of control and 6.61 % of control and 4.97 % of control and 6.15 % of control
HillSlope, collagen level ([1]; WI-26 VA4 EV, four-parameter fit): -1.549
LogIC50, collagen level ([1]; WI-26 VA4 EV, log of concentration in nM, four-parameter fit): 1.181
NOAEL at 2 weeks [2]: < 0.375 mg/kg
Mortality: Found dead ([3]; 1.5 mg/kg oral once daily, 1 animal on day 5, 2 on day 6): Found dead: 3/6 (1 animal on day 5, 2 animals on day 6) Terminal sacrifice: 3/6 (on day 6)
Mortality: Terminal sacrifice ([3]; 1.5 mg/kg oral once daily, on day 6): Found dead: 3/6 (1 animal on day 5, 2 animals on day 6) Terminal sacrifice: 3/6 (on day 6)
reduction in body weight ([3]; mouse, in vivo): > 10%
effective dose for decreasing general proteins (SMAD2, AIMP2, AMPKα, cyclin D1) compared with COL1A1 [4]: about three times
SMAD2 phosphorylation [5]: reduced SMAD2 phosphorylation
fibrotic properties [6]: less apparent

Source: publication PMC10331583, “Control of fibrosis with enhanced safety via asymmetric inhibition of prolyl‐tRNA synthetase 1” (EMBO Molecular Medicine, 2023)
